Experimental findings from PubChem BioAssay (NCI) are described below.

Common to all, as to assay: growth of human tumour cells (NCI), 48 h
Test [1] concerns HOP-92 NSCLC.
The test system of test [2] is M14 melanoma.
Test [3] has as its system MALME-3M melanoma.
Test [4] deals with MOLT-4 leukemia.
For test [5], the system named is NCI-H226 lung.
Test [6] concerns NCI-H23 lung.
The subject of test [7] is OVCAR-8 ovarian.
In test [8] the test system is SF-268 CNS.
Test [9] relates to SN12C renal.
Test [10] relates to TK-10 renal.

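Growth conditions: 96-well plates. Treatment: test compound, 48 hours, 5 concentrations. Analysis: linear interpolation between bracketing concentrations; unreached endpoints set to highest concentration. The concentration for 50% growth inhibition is given as GI50. TGI denotes the concentration required for complete inhibition of growth.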

On to `C=C(C)C(=O)O[C@H]1[C@H]2[C@H](OC(=O)[C@H]2C)[C@H](O)[C@@H](C)[C@@H]2C=CC(=O)[C@]21C`, for which the TGI is 8.89 µM in test [1]; 38.5 µM in test [2]; 5.54 µM in test [3]; 7.52 µM in [4]; 39 µM in [5]; 15 µM in [6]. Besides, the TGI in test [7] was 4.07 µM; in test [8], 12.6 µM; in test [9], 4.96 µM; in test [10] it was 8.09 µM.

Consider `COC(=O)CNC(=O)[C@@H](OC)[C@@H]1Cc2cc3cc(OC4CC(OC5CC(O)C(O)C(C)O5)C(O)C(C)O4)c(C)c(O)c3c(O)c2C(=O)[C@H]1OC1CC(OC2CC(OC3CC(C)(O)C(O)C(C)O3)C(O)C(C)O2)C(O)C(C)O1` (stereo not given in full), for which the GI50 in test [1] is 0.184 µM; in test [2], 0.239 µM; in test [3], 0.123 µM; in test [4] it was 0.198 µM; in test [5], 0.11 µM; in test [6], 0.15 µM. Besides, the GI50 is 0.122 µM in [7], 0.196 µM in [8], 0.138 µM in test [9] and 0.402 µM in [10]. The TGI in [1] is 4.59 µM; in test [2] it was 2.4 µM; in test [3], 1.03 µM; in test [4], 3.35 µM; in [5], 0.414 µM; in [6] it was above 50 µM. Also, the TGI in test [7], in [8], in test [9] and in test [10] was above 50 µM throughout.

Turning to `CN(C)C(=S)N=Nc1c(O)[nH]c2ccccc12`, the GI50 in test [1] is 0.761 µM; in test [2] it was 0.484 µM; in test [3] it was 1.75 µM; in test [4] it was 0.619 µM; in test [5], 0.642 µM; in test [6], 0.656 µM. Besides, the GI50 in [7] was 0.525 µM; in test [8], 0.593 µM; in [9], 0.578 µM; in test [10] it was 0.721 µM. The TGI was 15.9 µM in test [1]; 9.41 µM in [2]; 14.2 µM in test [3]; above 49.7 µM in test [4]; 6.43 µM in [5]; 25 µM in test [6]. Further, the TGI in test [7] stood at 26 µM; in test [8] it was 12.6 µM; in test [9], 17.9 µM; in [10] it was 14.7 µM.

On to `CCCCCCCCCCCCCCCC(=O)OCC1OC(n2c(O)c(N=NC(N)=S)c3ccc([N+](=O)[O-])cc32)C(OC(C)=O)C1OC(C)=O` (stereo not given), for which the TGI in test [1], in test [2], in [3], in [4], in test [5] and in test [6] was above 100 µM throughout. Besides, the TGI in test [7], in test [8], in test [9] and in test [10] was above 100 µM in each case.

In the case of `CCC(CC)n1c(C)nc2c1C(=O)c1ccccc1C2=O`, the TGI in test [1] was above 100 µM; in test [2], above 100 µM; in test [3] it was 73.6 µM; in [4] it was above 100 µM; in [5] it was above 100 µM; in test [6], 54 µM. The TGI in test [7], in [8], in test [9] and in [10] was above 100 µM each time.

With `Cc1nc2sc(C(=O)Nc3ccccc3)c(N)c2cc1C(=O)/C=C/c1ccccc1`, the GI50 was 2.07 µM in [1]; 1.76 µM in test [2]; 2.35 µM in [3]; 2.91 µM in test [4]; 2.04 µM in [5]; 2.2 µM in test [6]. The GI50 in [7] was 3.03 µM; in [8], 2.94 µM; in test [9], 2.02 µM; in test [10], 2.3 µM. The TGI is 7.07 µM in [1]; 4.49 µM in [2]; 7.71 µM in test [3]; 76.1 µM in test [4]; 4.6 µM in [5]; 5.44 µM in test [6]. Besides, the TGI in test [7] stood at 11.8 µM; in test [8], 9.93 µM; in test [9], 4.45 µM; in [10], 6.39 µM.

As to `COc1ccc2oc3cccc(NCCN(C)C)c3c(=O)c2c1`, the TGI in test [1] amounted to 27.9 µM; in test [2] it was 29.4 µM; in test [3], 29.2 µM; in [4], 12.7 µM; in test [5] it was 32 µM; in [6] it was 32.7 µM. For the same molecule, the TGI was found to be 23.7 µM in [7], 28.3 µM in [8], 23.3 µM in test [9] and 28.2 µM in test [10].

`CC(C)CC1=[N+]=C(NC#N)N=C(CCC(=O)Nc2ccccc2[N+](=O)[O-])C1`: the TGI in [1], in [2], in test [3], in test [4], in [5] and in test [6] was above 100 µM in each case. The TGI in test [7], in test [8], in test [9] and in test [10] was above 100 µM each time.

Consider `COc1ccc(C2S/C(=C\c3ccc(O)cc3)C(=O)N2NC(=O)Cc2ccccc2)cc1` (stereo not given), for which the TGI in test [1], in test [2], in [3], in test [4], in test [5] and in [6] was above 100 µM each time. For the same molecule, the TGI in test [7], in [8], in test [9] and in [10] was above 100 µM each time.

With `COc1ccc2c(c1)OC(N(C(C)=O)C(C)=O)=C(C#N)C2c1ccc(F)cc1` (stereo not given), the GI50 in test [1] is 10.9 µM; in [2] it was 0.482 µM; in test [3], 21.6 µM; in test [4], 2.66 µM; in test [5] it was 25.5 µM; in test [6] it was 4.44 µM. Also, the GI50 in test [7] is 3.92 µM; in [8], 9.47 µM; in [9], 6.48 µM; in [10] it was 17.5 µM. The TGI was 90.4 µM in [1]; above 100 µM in test [2]; above 100 µM in [3]; above 100 µM in [4]; above 100 µM in test [5]; above 100 µM in test [6]. For the same molecule, the TGI in test [7], in test [8], in test [9] and in test [10] was above 100 µM each time.

As to `Cc1cccc(C(C)C)c1NC(=O)C(=O)CC(=O)c1c(C)n([O-])c2ccccc2[n+]1=O`, the TGI is above 100 µM in [1]; 95.3 µM in test [2]; 44.1 µM in test [3]; 59.8 µM in [4]; above 100 µM in test [5]; 51.3 µM in test [6]. Moreover, the TGI is above 100 µM in [7], above 100 µM in [8], 96.7 µM in test [9] and above 100 µM in [10].

With `Fc1cccc(COc2ccc(Nc3ncnc4cc(-c5ccc[nH]5)sc34)cc2Cl)c1`, the GI50 in test [1] is 0.31 µM; in test [2], 8.32 µM; in [3], 2.65 µM; in test [4] it was 2.59 µM; in test [5], 1.7 µM; in test [6], 7.22 µM. In addition, the GI50 was 3.38 µM in test [7], 1.46 µM in test [8], 1.42 µM in test [9] and 0.482 µM in test [10]. For the same molecule, the TGI in [1] was 2.39 µM; in test [2], above 23.4 µM; in [3] it was 14.6 µM; in test [4] it was above 25 µM; in [5], above 16.8 µM; in test [6], above 25 µM. The TGI was above 25 µM in test [7], above 14.7 µM in [8], above 25 µM in test [9] and 2.64 µM in test [10].

As to `O=C1/C(=C/c2ccc(O)cc2)COc2ccc(-c3ccccc3)cc21`, the GI50 in test [1] was 7.63 µM; in [2] it was 12.2 µM; in test [3], 8.38 µM; in test [4] it was 1.62 µM; in test [5], 16.1 µM; in test [6], 12.4 µM. In addition, the GI50 was 9.27 µM in [7], 5.49 µM in test [8], 7.29 µM in test [9] and 2.98 µM in test [10]. Also, the TGI was 31 µM in test [1]; 39.1 µM in test [2]; 30.6 µM in test [3]; above 32.5 µM in test [4]; 39.2 µM in [5]; 29.6 µM in test [6]. Moreover, the TGI in test [7] came to 23.1 µM; in test [8], 22.8 µM; in test [9] it was 24.8 µM; in [10] it was 11.9 µM.

Consider `COc1cccc(C2c3cc4c(cc3OC(O)(CO)C2C(=O)O)OCO4)c1` (stereo not given) (tested in a mixture with another compound), for which the TGI in test [1] was 79.9 µM; in test [2], above 100 µM; in test [3], above 100 µM; in test [4], above 100 µM; in test [5], above 100 µM; in test [6] it was above 100 µM. For the same molecule, the TGI in test [7], in test [8], in test [9] and in test [10] was above 100 µM in each case.

Turning to `CN(C)CCOc1ccc2c(c1)C/C(=C/c1ncc([N+](=O)[O-])n1C)C2=O`, the TGI in test [1] was 5.77 µM; in test [2] it was 5.71 µM; in test [3], 5.23 µM; in [4] it was above 22.6 µM; in test [5] it was 4.52 µM; in test [6], 4.94 µM. Besides, the TGI in test [7] was found to be 8.01 µM; in test [8] it was 9.1 µM; in test [9], 9.78 µM; in test [10], 10.9 µM.

On to `CC1OC2CC(=O)OC2C2=C1C(=O)c1c(O)c3c(c(O)c1C2=O)C1CC(O)C3(O)C(C)O1` (stereo not given), for which the GI50 is 1.06 µM in test [1]; 0.242 µM in test [2]; 0.142 µM in test [3]; 0.244 µM in [4]; 0.974 µM in test [5]; 0.414 µM in test [6]. Also, the GI50 in [7] was 0.271 µM; in test [8], 0.303 µM; in [9], 0.211 µM; in test [10], 0.302 µM. Moreover, the TGI in test [1] came to 3.56 µM; in test [2], 0.662 µM; in [3] it was 0.385 µM; in [4] it was 0.64 µM; in [5], 3.18 µM; in test [6], 1.55 µM. Moreover, the TGI in test [7] worked out at 3.5 µM; in test [8], 1.15 µM; in [9], 0.539 µM; in [10], 1.12 µM.

Turning to `COc1ccc2c3c(c(=O)n(C)c2c1OC)C=CC(C)(C)O3`, the TGI is 76 µM in test [1]; above 100 µM in [2]; above 100 µM in test [3]; 54.7 µM in [4]; 80.9 µM in [5]; 84.9 µM in [6]. Also, the TGI in [7] is above 100 µM; in test [8], above 100 µM; in [9], 54.8 µM; in test [10], above 100 µM.

With `CC(=O)[O-].CC(=O)[O-].[NH2-].[Pt+2].c1ccc2cnccc2c1`, the GI50 was 16.2 µM in test [1]; 59.1 µM in [2]; 12.9 µM in test [3]; 1.4 µM in test [4]; 47.4 µM in test [5]; 47.7 µM in test [6]. Further, the GI50 is 3.72 µM in [7], 18.8 µM in [8], 28.6 µM in test [9] and 15.5 µM in test [10]. For the same molecule, the TGI in test [1] is 90.6 µM; in test [2], above 100 µM; in test [3], above 100 µM; in test [4] it was 27.3 µM; in [5] it was above 100 µM; in [6], above 100 µM. The TGI is 21.7 µM in test [7], above 100 µM in [8], above 100 µM in test [9] and 90.7 µM in test [10].
